Test results taken from ChEMBL document CHEMBL1201862, “PubChem BioAssay data set” (2004).
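Briefly, cells in 96-well plates were exposed to five compound concentrations for 48 h, and endpoints were estimated by linear interpolation. GI50 is the concentration that inhibits growth by half.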 Calls of active or inactive are those of the source. Cut-off read from the data, not from the text of the source: active = GI50 up to about 1.1 µM and inactive = higher.

How the values were obtained:
Experiment in all cases: growth of human tumour cells (NCI), 48 h
SNB-19 = tested on: SNB-19
SF-539 = tested on: SF-539
LXFL 529 = tested on: LXFL 529
NCI-H460 = tested on: NCI-H460
ACHN = tested on: ACHN
U-251 = tested on: U-251
NCI-H23 = tested on: NCI-H23
HCT-15 = tested on: HCT-15
OVCAR-8 = tested on: OVCAR-8
DMS-114 = tested on: DMS-114
DLD-1 = tested on: DLD-1
HOP-18 = tested on: HOP-18
K562 = tested on: K562
HOP-92 = tested on: HOP-92
XF498 = tested on: XF498
OVCAR-3 = tested on: OVCAR-3
SW-620 = tested on: SW-620
SN12C = tested on: SN12C
OVCAR-4 = tested on: OVCAR-4
Malme-3M = tested on: Malme-3M
RPMI-8226 = tested on: RPMI-8226
SNB-78 = tested on: SNB-78
NCI-H226 = tested on: NCI-H226
EKVX = tested on: EKVX
SNB-75 = tested on: SNB-75
HL-60 = tested on: HL-60
HCC 2998 = tested on: HCC 2998
A498 = tested on: A498
UACC-62 = tested on: UACC-62
A549 = tested on: A549
SK-MEL-2 = tested on: SK-MEL-2
COLO 205 = tested on: COLO 205
UACC-257 = tested on: UACC-257
KM-20L2 = tested on: KM-20L2
HCT-116 = tested on: HCT-116
LOX IMVI = tested on: LOX IMVI
M19-MEL = tested on: M19-MEL
HT-29 = tested on: HT-29
786-0 = tested on: 786-0
RXF 393 = tested on: RXF 393
SK-MEL-28 = tested on: SK-MEL-28
SF-268 = tested on: SF-268
MOLT-4 = tested on: MOLT-4
NCI-H522 = tested on: NCI-H522
SK-MEL-5 = tested on: SK-MEL-5
DMS-273 = tested on: DMS-273
HOP-62 = tested on: HOP-62
KM12 = tested on: KM12
SF-295 = tested on: SF-295
SK-OV-3 = tested on: SK-OV-3
TK-10 = tested on: TK-10
CCRF-CEM = tested on: CCRF-CEM
OVCAR-5 = tested on: OVCAR-5
IGROV-1 = tested on: IGROV-1
CAKI-1 = tested on: CAKI-1
M14 = tested on: M14
UO-31 = tested on: UO-31
SR = tested on: SR

Compound: O=C1c2ccccc2C(=O)c2c(NCCNCCO)ccc(O)c21
- GI50 (SNB-19): 2.89 µM (inactive)
- GI50 (SF-539): 2.9 µM (inactive)
- GI50 (LXFL 529): 3.69 µM (inactive)
- GI50 (NCI-H460): 1.44 µM (inactive)
- GI50 (ACHN): 2.73 µM (inactive)
- GI50 (U-251): 3.48 µM (inactive)
- GI50 (NCI-H23): 2.59 µM (inactive)
- GI50 (HCT-15): 3.46 µM
- GI50 (OVCAR-8): 2.39 µM (inactive)
- GI50 (DMS-114): 4.59 µM (inactive)
- GI50 (DLD-1): 3.33 µM (inactive)
- GI50 (HOP-18): 9.27 µM (inactive)
- GI50 (K562): 4.86 µM (inactive)
- GI50 (HOP-92): 3.21 µM (inactive)
- GI50 (XF498): 4.89 µM (inactive)
- GI50 (OVCAR-3): 6.46 µM (inactive)
- GI50 (SW-620): 2.26 µM (inactive)
- GI50 (SN12C): 1.45 µM (inactive)
- GI50 (OVCAR-4): 2.85 µM (inactive)
- GI50 (Malme-3M): 3.18 µM (inactive)
- GI50 (RPMI-8226): 3.22 µM (inactive)
- GI50 (SNB-78): 4.61 µM (inactive)
- GI50 (NCI-H226): 2.71 µM (inactive)
- GI50 (EKVX): 3.98 µM (inactive)
- GI50 (SNB-75): 3.63 µM (inactive)
- GI50 (HL-60): 2.61 µM (inactive)
- GI50 (HCC 2998): 4.66 µM (inactive)
- GI50 (A498): 5.53 µM (inactive)
- GI50 (UACC-62): 3.35 µM (inactive)
- GI50 (A549): 2.45 µM (inactive)
- GI50 (SK-MEL-2): 3.54 µM (inactive)
- GI50 (COLO 205): 2.26 µM (inactive)
- GI50 (UACC-257): 3.29 µM (inactive)
- GI50 (KM-20L2): 2.94 µM (inactive)
- GI50 (HCT-116): 1.81 µM (inactive)
- GI50 (LOX IMVI): 1.51 µM (inactive)
- GI50 (M19-MEL): 2.82 µM (inactive)
- GI50 (HT-29): 2.58 µM (inactive)
- GI50 (786-0): 3.66 µM (inactive)
- GI50 (RXF 393): 2.15 µM (inactive)
- GI50 (SK-MEL-28): 2.88 µM (inactive)
- GI50 (SF-268): 2.14 µM (inactive)
- GI50 (MOLT-4): 1.37 µM (inactive)
- GI50 (NCI-H522): 2.59 µM (inactive)
- GI50 (SK-MEL-5): 3.18 µM (inactive)
- GI50 (DMS-273): 2.22 µM (inactive)
- GI50 (HOP-62): 3.21 µM (inactive)
- GI50 (KM12): 2.52 µM (inactive)
- GI50 (SF-295): 4.35 µM (inactive)
- GI50 (SK-OV-3): 2.55 µM (inactive)
- GI50 (TK-10): 4.65 µM (inactive)
- GI50 (CCRF-CEM): 3.15 µM (inactive)
- GI50 (OVCAR-5): 3.4 µM (inactive)
- GI50 (IGROV-1): 2.97 µM (inactive)
- GI50 (CAKI-1): 2.64 µM (inactive)
- GI50 (M14): 3.23 µM (inactive)
- GI50 (UO-31): 1.49 µM (inactive)

Compound: CC(C)/C=C1\CCC(CN2CCCC2)C1=O (stereo not drawn)
- GI50 (SR): 2.82 µM (inactive)
- GI50 (SNB-19): > 41.6 µM (inactive)
- GI50 (SF-539): 18.7 µM (inactive)
- GI50 (LXFL 529): 3.03 µM (inactive)
- GI50 (NCI-H460): 39 µM (inactive)
- GI50 (ACHN): 18.2 µM (inactive)
- GI50 (U-251): 14.6 µM (inactive)
- GI50 (NCI-H23): 16.7 µM (inactive)
- GI50 (HCT-15): 5.05 µM
- GI50 (OVCAR-8): 10.4 µM (inactive)
- GI50 (DMS-114): 12.9 µM (inactive)
- GI50 (DLD-1): 3.88 µM (inactive)
- GI50 (HOP-18): 7.73 µM (inactive)
- GI50 (K562): 2.69 µM (inactive)
- GI50 (HOP-92): 17.5 µM (inactive)
- GI50 (XF498): 16.6 µM (inactive)
- GI50 (OVCAR-3): 17.4 µM (inactive)
- GI50 (SW-620): 2.44 µM (inactive)
- GI50 (SN12C): 18.7 µM (inactive)
- GI50 (OVCAR-4): 17.6 µM (inactive)
- GI50 (Malme-3M): 6.28 µM (inactive)
- GI50 (RPMI-8226): 0.472 µM (active)
- GI50 (SNB-78): 21 µM (inactive)
- GI50 (NCI-H226): 20.9 µM (inactive)
- GI50 (EKVX): 20.8 µM (inactive)
- GI50 (HL-60): 3.51 µM (inactive)
- GI50 (HCC 2998): 19.5 µM (inactive)
- GI50 (A498): > 42.3 µM (inactive)
- GI50 (UACC-62): 20.6 µM (inactive)
- GI50 (A549): 13.8 µM (inactive)
- GI50 (SK-MEL-2): 20.7 µM (inactive)
- GI50 (COLO 205): 7.05 µM (inactive)
- GI50 (UACC-257): 17.7 µM (inactive)
- GI50 (KM-20L2): 18.5 µM (inactive)
- GI50 (HCT-116): 8.97 µM (inactive)
- GI50 (LOX IMVI): 19.9 µM (inactive)
- GI50 (M19-MEL): 24.1 µM (inactive)
- GI50 (HT-29): 9.73 µM (inactive)
- GI50 (786-0): 2.01 µM (inactive)
- GI50 (RXF 393): 16 µM (inactive)
- GI50 (SK-MEL-28): 17.5 µM (inactive)
- GI50 (SF-268): 22.3 µM (inactive)
- GI50 (MOLT-4): 3.63 µM (inactive)
- GI50 (NCI-H522): 1.95 µM (inactive)
- GI50 (SK-MEL-5): 17.1 µM (inactive)
- GI50 (HOP-62): > 87.5 µM (inactive)
- GI50 (KM12): 10 µM (inactive)
- GI50 (SF-295): 42.6 µM (inactive)
- GI50 (SK-OV-3): > 100 µM (inactive)
- GI50 (TK-10): 10.7 µM (inactive)
- GI50 (CCRF-CEM): 3.48 µM (inactive)
- GI50 (OVCAR-5): 20 µM (inactive)
- GI50 (IGROV-1): 25.7 µM (inactive)
- GI50 (CAKI-1): 5.16 µM (inactive)
- GI50 (M14): 10.9 µM (inactive)
- GI50 (UO-31): 18.5 µM (inactive)
